System: apyrase
Experiment: Screen for apyrase inhibitors (Method 1, in vitro phosphate-release absorbance assay)
Assay type: biochemical
Conditions: inhibitor conc at 1 mM stock, 1 hr room temperature, absorbance 630 nm; rounded average of two assay results
How it was run: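 Phosphate-release colorimetric assay (Windsor method) in 60 mM Hepes, 3 mM MgCl2, 3 mM CaCl2, 3 mM ATP, pH 6.5, with compound or DMSO control added. Released phosphate developed with ammonium molybdate and ascorbic acid/TCA, then stopped with citrate/acetic acid.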

| % Inhibition of Apyrase [%] | Structure (SMILES) |
| --- | --- |
| 73 | O=C(Nc1cccc([N+](=O)[O-])c1)c1cccc(S(=O)(=O)Nc2cc(C(F)(F)F)ccc2Cl)c1 [I-3, 3-(N-(2-chloro-5-(trifluoromethyl)phenyl)sulfamoyl)-N-(3-nitrophenyl)benzamide] |
| 57 | O=C(Nc1cc2c(cc1Cl)OCO2)c1ccc(Cl)c(S(=O)(=O)N2CCc3ccccc32)c1 [I-496, 4-chloro-N-(6-chlorobenzo[d][1,3]dioxol-5-yl)-3-(indolin-1-ylsulfonyl)benzamide] |
| 13 | O=C(NCCCCO)c1cccc(S(=O)(=O)Nc2ccc(Br)cc2)c1 [I-286, 3-(N-(4-bromophenyl)sulfamoyl)-N-(4-hydroxybutyl)benzamide] |
| 44 | Cc1occc1C(=O)Nc1cccc(S(=O)(=O)Nc2cccc(C(F)(F)F)c2)c1 [I-747, 2-methyl-N-(3-(N-(3-(trifluoromethyl)phenyl)sulfamoyl)phenyl) furan-3-carboxamide] |
| 17 | COc1ccccc1NS(=O)(=O)c1cccc(NC(=O)c2ccc(C)s2)c1 [I-761, N-(3-(N-(2-methoxyphenyl)sulfamoyl)phenyl)-5-methylthiophene-2-carboxamide] |
| 15 | O=C(Nc1cccc(S(=O)(=O)Nc2ccc(Cl)cc2)c1)c1ccc(Cl)nc1 [I-764, 6-chloro-N-(3-(N-(4-chlorophenyl)sulfamoyl)phenyl)nicotinamide] |
| 75 | CN(c1ccccc1)S(=O)(=O)c1ccccc1C(=O)N1CCCc2ccccc21 [I-810, N-methyl-N-phenyl-2-(1,2,3,4-tetrahydroquinoline-1-carbonyl)benzenesulfonamide] |
| 65 | CCOc1ccc(NC(=O)c2ccc(NS(=O)(=O)c3cccc(C(F)(F)F)c3)cc2)cc1 [I-900, N-(4-ethoxyphenyl)-4-((3-(trifluoromethyl)phenyl)sulfonamido) benzamide] |
| 43 | Cc1ccc(S(=O)(=O)N(C)c2ccc(C(=O)Nc3ccccc3OC(F)F)cc2)cc1 [I-947, N-(2-(difluoromethoxy)phenyl)-4-((N,4-dimethylphenyl)sulfonamido)benzamide] |
| 22 | O=C(Nc1ccccc1Cl)c1cccc(NS(=O)(=O)c2cccs2)c1 [I-665, N-(2-chlorophenyl)-3-(thiophene-2-sulfonamido)benzamide] |
| 60 | N#Cc1ccc(C(=O)Nc2cccc(S(=O)(=O)Nc3ccc(Br)cc3)c2)cc1 [I-332, N-(3-(N-(4-bromophenyl)sulfamoyl)phenyl)-4-cyanobenzamide] |
| 38 | Cc1ccccc1NS(=O)(=O)c1ccc(C(=O)Nc2cccc([N+](=O)[O-])c2C)cc1 [I-404, N-(2-methyl-3-nitrophenyl)-4-(N-(o-tolyl)sulfamoyl)benzamide] |
| 52 | Cc1ccc(Br)c(NS(=O)(=O)c2cccc(NC(=O)c3ccc(C)nc3)c2)c1 [I-738, N-(3-(N-(2-bromo-5-methylphenyl)sulfamoyl)phenyl)-6-methylnicotinamide] |
| 58 | O=C(Nc1cc(F)ccc1F)c1cccc(S(=O)(=O)N2CCc3ccccc32)c1 [I-488, N-(2,5-difluorophenyl)-3-(indolin-1-ylsulfonyl)benzamide] |
| 17 | O=C(Nc1cccc(C(F)(F)F)c1)c1cccc(S(=O)(=O)Nc2ccccc2F)c1 [I-285, 3-(N-(2-fluorophenyl)sulfamoyl)-N-(3-(trifluoromethyl)phenyl)benzamide] |
| 35 | COc1ccc(S(=O)(=O)N2CCc3ccccc32)cc1C(=O)Nc1ccc(OC(F)(F)F)cc1 [I-597, 5-(indolin-1-ylsulfonyl)-2-methoxy-N-(4-(trifluoromethoxy)phenyl)benzamide] |
| 47 | COC(=O)c1cccc2c1CCCN2C(=O)c1cccc(S(=O)(=O)N(C)c2ccccc2)c1 [I-580, methyl 1-(3-(N-methyl-N-phenylsulfamoyl)benzoyl)-1,2,3,4-tetrahydroquinoline-5-carboxylate] |
| 29 | CCOc1ncccc1C(=O)Nc1cccc(S(=O)(=O)Nc2ccccc2OC)c1 [I-757, 2-ethoxy-N-(3-(N-(2-methoxyphenyl)sulfamoyl)phenyl) nicotinamide] |
| 64 | Cc1ccc(C(=O)Nc2ccccc2S(=O)(=O)Nc2ccccc2)cc1F [I-817, 3-fluoro-4-methyl-N-(2-(N-phenylsulfamoyl)phenyl)benzamide] |
| 62 | Cc1cccc(NC(=O)c2cccc(NS(=O)(=O)c3ccc4c(c3)OCCO4)c2)c1C [I-320, 3-((2,3-dihydrobenzo[b][1,4]dioxine)-6-sulfonamido)-N-(2,3-dimethylphenyl)benzamide] |

| % Inhibition of Apyrase [%] | Structure (SMILES) |
| --- | --- |
| 62 | O=C(Nc1cccc(F)c1)c1ccc(NS(=O)(=O)c2ccccc2)cc1 [I-904, N-(3-fluorophenyl)-4-(phenylsulfonamido)benzamide] |
| 63 | O=C1CN(S(=O)(=O)c2ccc(Cl)cc2)c2ccccc2N1 [I-829, 4-((4-chlorophenyl)sulfonyl)-3,4-dihydroquinoxalin-2(1H)-one] |
| 17 | Cc1ccc(C(=O)Nc2cccc(C(=O)O)c2)cc1S(=O)(=O)Nc1ccc(Br)cc1 [I-35, 3-(3-(N-(4-bromophenyl)sulfamoyl)-4-methylbenzamido)benzoic acid] |
| 61 | CC1CCc2c(sc(NC(=O)c3cccc(S(=O)(=O)Nc4ccc(Br)cc4)c3)c2C#N)C1 (stereo not shown) [I-9, 3-(N-(4-bromophenyl)sulfamoyl)-N-(3-cyano-6-methyl-4,5,6,7-tetrahydrobenzo[b]thiophen-2-yl)benzamide] |
| 51 | O=C(Nc1cccnc1)c1cccc(NS(=O)(=O)c2ccc(Br)cc2)c1 [I-648, 3-((4-bromophenyl)sulfonamido)-N-(pyridin-3-yl)benzamide] |
| 52 | CN(C1CCCCC1)S(=O)(=O)c1ccccc1NC(=O)c1c(F)cccc1F [I-824, N-(2-(N-cyclohexyl-N-methylsulfamoyl)phenyl)-2,6-difluorobenzamide] |
| 19 | COc1ccc(C(=O)Nc2ccc(Cl)cc2)cc1S(=O)(=O)Nc1ccc(Br)cc1 [I-33, 3-(N-(4-bromophenyl)sulfamoyl)-N-(4-chlorophenyl)-4-methoxybenzamide] |
| 54 | CC1Cc2ccccc2N1S(=O)(=O)c1cccc(C(=O)Nc2ccc3c(c2)OCCO3)c1 (stereo not shown) [I-536, N-(2,3-dihydrobenzo[b][1,4]dioxin-6-yl)-3-((2-methylindolin-1-yl)sulfonyl)benzamide] |
| 56 | COc1ccc(NS(=O)(=O)c2cccc(NC(=O)c3[nH]c(C)c(C(C)=O)c3C)c2)cc1 [I-727, 4-acetyl-N-(3-(N-(4-methoxyphenyl)sulfamoyl)phenyl)-3,5-dimethyl-1H-pyrrole-2-carboxamide] |
| 11 | CCCNC(=O)CN(CCC)C(=O)c1cccc(S(=O)(=O)Nc2ccc(Br)cc2)c1 [I-287, 3-(N-(4-bromophenyl)sulfamoyl)-N-(2-oxo-2-(propylamino)ethyl)-N-propylbenzamide] |
| 57 | COC(=O)C1(c2ccc(Br)cc2)CCN(C(=O)c2cccc(S(=O)(=O)Nc3ccc(Br)cc3)c2)C1 (stereo not shown) [I-269, methyl 3-(4-bromophenyl)-1-(3-(N-(4-bromophenyl)sulfamoyl)benzoyl)pyrrolidine-3-carboxylate] |
| 53 | COc1ccc(Cl)cc1NC(=O)c1cccc(S(=O)(=O)N2CCc3ccccc32)c1 [I-548, N-(5-chloro-2-methoxyphenyl)-3-(indolin-1-ylsulfonyl)benzamide] |
| 60 | CC1Cc2ccccc2N1S(=O)(=O)c1cccc(C(=O)Nc2cccc(S(N)(=O)=O)c2)c1 (stereo not shown) [I-458, 3-((2-methylindolin-1-yl)sulfonyl)-N-(3-sulfamoylphenyl)benzamide] |
| 18 | Cc1cccc(NS(=O)(=O)c2ccc(C(=O)Nc3cccc(C(=O)N(C)C)c3)cc2)c1C [I-894, 3-(4-(N-(2,3-dimethylphenyl)sulfamoyl)benzamido)-N,N-dimethylbenzamide] |
| 59 | CSc1cccc(NC(=O)c2cccc(S(=O)(=O)N3c4ccccc4CC3C)c2)c1 (stereo not shown) [I-468, 3-((2-methylindolin-1-yl)sulfonyl)-N-(3-(methylthio)phenyl)benzamide] |
| 52 | Cc1cccc(NS(=O)(=O)c2cc(C(=O)Nc3cccc(C#N)c3)c(Cl)cc2Cl)c1 [I-560, 2,4-dichloro-N-(3-cyanophenyl)-5-(N-(m-tolyl)sulfamoyl)benzamide] |
| 13 | O=C(Nc1ccc2c(c1)OCCCO2)c1cccc(S(=O)(=O)N2CCc3ccccc32)c1 [I-609, N-(3,4-dihydro-2H-benzo[b][1,4]dioxepin-7-yl)-3-(indolin-1-ylsulfonyl)benzamide] |
| 43 | COc1ccccc1NS(=O)(=O)c1ccc(NC(=O)c2cccc(C#N)c2)cc1 [I-997, 3-cyano-N-(4-(N-(2-methoxyphenyl)sulfamoyl)phenyl)benzamide] |
| 41 | O=C(Nc1ccc2c(c1)OCO2)c1ccc(S(=O)(=O)Nc2ccccc2F)cc1 [I-401, N-(benzo[d][1,3]dioxol-5-yl)-4-(N-(2-fluorophenyl)sulfamoyl)benzamide] |
| 43 | COc1ccc(NS(=O)(=O)c2cccc(C(=O)Nc3ccc(Br)cc3)c2)cc1 [I-278, N-(4-bromophenyl)-3-(N-(4-methoxyphenyl)sulfamoyl)benzamide] |
